Measurements reported in article PMC11544072 (Heliyon, 2024).

Biological target: CYP154C7
Test: UV/Vis spectral titration, type I spin shift
Assay type: binding, Streptomyces sp. PAMC26508

Row | SMILES | Kd
1 | C[C@]12CCC(=O)C=C1CC[C@@H]1[C@@H]2CC[C@]2(C)C(=O)CC[C@@H]12 [androstenedione] | 0.201 ± 0.043 µM
2 | C[C@]12CCC(=O)C=C1CC[C@@H]1[C@@H]2C(=O)C[C@@]2(C)[C@H]1CC[C@]2(O)C(=O)CO [cortisone] | 2 ± 0.34 µM
3 | C[C@]12CC[C@H]3[C@@H](CCC4=CC(=O)CC[C@@]43C)[C@@H]1CC[C@@H]2O [testosterone] | 0.304 ± 0.07 µM
